Experimental data published in article PMC11952641, “A Novel D-peptide modulates DCLK1 Gelsolin interactions, reducing PDAC tumor growth” (Research Square, 2025).
One block for each molecule: values may come before it. Non-standard residues stand in square brackets, D forms with d. Residues, ends and D or L forms follow the SMILES beside them.

How the values were obtained:
DCLK1 isoform 4 / CBT-15 = assay: Competition assay: CBT-15 binding to DCLK1 isoform 4; design: species or system human; conditions: Fig. 1D, mean ± SEM, *p < 0.01
AsPC-1 xenografts = assay: AsPC-1 xenograft tumor growth in athymic nude mice; type: in vivo, athymic nude (Foxn1nu/Foxn1nu) mice; conditions: 10 mg/kg subcutaneously every three days; day 36
Procedure: Athymic nude (Foxn1^nu/Foxn1^nu) mice were purchased from the Jackson Laboratory (Bar Harbor, Maine) and housed in pathogen-free conditions. AsPC-1 cells (1 × 10^7) were injected subcutaneously into the flanks of 4- to 6-week-old mice (n=3/group). Tumors were measured using a caliper and the volume was calculated as (length × width^2) × 0.5. Once tumors achieved an average size of ~100 mm^3, mice were injected subcutaneously with selected D-peptides at a dose of 10 mg/kg. Treatments were continued every three days until day 36.

[1] = tested on: AsPC-1 pancreatic cancer cells; assay: Colony formation assay, AsPC-1; type: cell-based; conditions: Fig. 2A, blinded study
[2] = molecular target: T1, DCLK1 isoform 4 (human His-tagged DCLK1 C-terminal recombinant protein) (Homo sapiens, UniProt O15075); assay: BLI evaluation of D-peptide binding to DCLK1 NKEBD; conditions: DCLK1 isoform 4 immobilized on biosensor, PBS/0.05%Tween20/1%DMSO, from 30 μM in a 1:3 series
T1 sequence (O15075 687-740 limits assumed): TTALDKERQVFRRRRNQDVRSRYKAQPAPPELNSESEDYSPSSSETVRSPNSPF
Procedure: (§1) Purification of human DCLK1 isoform 4 was performed at the University of Oklahoma Protein Production and Characterization Core Facility (Norman, OK) using an E. coli strain BL21(DE3) pLPP containing the pET19-DCLK1 isoform 4 plasmid. For Bio-layer Interferometry (BLI) experiments, a C-terminal DCLK1 isoform 2/4 His-tagged protein was used (NovoPro, Shanghai, China). All His-tagged proteins were dialyzed using PBS/glycerol to remove imidazole.
Human His-tagged DCLK1 C-terminal recombinant protein from NovoPro was used. Binding to the sensor was carried out in PBS/0.05%Tween20/1%DMSO. Response is measured as a nm shift in the interference pattern and is proportional to the number of molecules bound to the biosensor’s surface. Initially, all peptides were tested at 5 and 30 μM. The top binders were tested again with eight different concentrations, starting at 30 μM and diluted in a 1:3 series to determine the dissociation constant (KD).

DCLK1 isoform 4-pGSN = assay: ELISA: effect of peptides on DCLK1-Gelsolin PPI; type: binding, human; conditions: peptide 20 mg/well (so in the source), pGSN 2 μg/ml, Fig. 3H
Procedure: as §1
(§2) Polystyrene microtitre Immulon 2HB plate was coated with freshly prepared (400 ng/50 ml) DCLK1 isoform 4 ([…]) in 0.1 M NaHCO3, pH 8.6, overnight at 4C. After blocking with 1% gelatin in TTBS at RT, different concentrations of gelsolin or FGF19 were added (2 mg/50ul/well, 1 mg/well, 0.5 mg/well, and 0.25 mg/well at […], proteins diluted in TTBS), and incubated at RT. To study the competitive ability of peptides, we used 20 mg/well of either D-peptide 1, D-peptide 3, D-peptide 5, or the C-terminal peptide antigen for the mAb CBT-15. After incubation at RT, plates were washed with TTBS, and bound gelsolin or FGF19 was detected. […] Detection was by alkaline phosphatase-conjugated goat anti-mouse IgG (ab97020; Abcam, Waltham, MA) followed by 1-STEP NBT/BCIP substrate (#34042; ThermoFisher Scientific, Waltham, MA) and quantified at 450 nm on a microplate reader.

[3] = tested on: Capan-1 pancreatic cancer cells; assay: Colony formation assay, Capan-1; type: cell-based; conditions: Fig. 2B, blinded study
DCLK1 isoform 1 = assay: Cross-reactivity to DCLK1 isoform 1; type: binding, human
DCLK1 isoform 4 [4] = assay: D-peptide library screen for binding to DCLK1 isoform 4, excluding isoform 1 binders; design: species or system human; conditions: bead library screen, biotin-labeled DCLK1 isoform 4
Procedure: An aliquot from each sub-library, containing approximately 1000 beads, was added to a well of a 96-well polystyrene multi-well plate. From 1.5 to 2 ml of Superblock (Pierce Chemical Company, Rockford, IL.) reagent, 0.1% gelatin, or 1%(w/v) bovine serum albumin (BSA) in phosphate-buffered saline (PBS), pH 7.4, was added to each well, and the plates were incubated for one to two hours at room temperature (RT), with periodic or continuous mixing by gentle rocking. Purified DCLK1 isoform 4 protein was labeled with biotin using the biotinylating reagent NHS-LC-biotin (Pierce Chemical Company) according to the supplier’s instructions. Biotin-labeled protein was detected using AP-conjugated to neutravidin (Pierce Chemical Company) incubated with the beads for 30 minutes, after which the beads were washed three times with a Tris-buffered saline solution (pH 7.5), with the second wash being left in contact with the beads for 30 minutes. One-step NBT/BCIP (nitro-blue tetrazolium chloride/5-bromo-4-chloro-3’-indolyphosphate p-toluidine salt) (Pierce Chemical Co.) was then added and the beads observed under a low-power microscope until some of the beads had turned a dark purple color. The beads were washed with PBS twice, followed by 1% acetic acid and a final wash in water. Dark purple-black beads were removed using a small-bore pipette and subjected to amino acid sequence analysis. […]

DCLK1 isoform 4 [5] = assay: ELISA: FGF19 binding to DCLK1 isoform 4; design: species or system human; conditions: RT, 450 nm, Fig. 3H
Procedure: as §1, §2

DCLK1 isoform 4 [6] = assay: ELISA: pGSN binding to DCLK1 isoform 4; design: species or system human; conditions: 1% gelatin blocking, RT, 450 nm, Fig. S2
Procedure: as §1, §2

DCLK1 isoform 4 [7] = assay: SPR binding to DCLK1 isoform 4; design: species or system human; conditions: DCLK1 isoform 4 binding to Gelsolin, Fig. 3F
Procedure: as §1

plasma gelsolin = molecular target: T2, plasma gelsolin (UniProt P06396 28-782); assay: SPR; who was immobilised and the conditions not given; conditions: both partners purified
T2 construct: plasma gelsolin (pGSN), the extracellular form of gelsolin; The source is told for the ELISA only; also called pGSN; source: bought: Abcam (ab233671)
T2 sequence (P06396 28-782): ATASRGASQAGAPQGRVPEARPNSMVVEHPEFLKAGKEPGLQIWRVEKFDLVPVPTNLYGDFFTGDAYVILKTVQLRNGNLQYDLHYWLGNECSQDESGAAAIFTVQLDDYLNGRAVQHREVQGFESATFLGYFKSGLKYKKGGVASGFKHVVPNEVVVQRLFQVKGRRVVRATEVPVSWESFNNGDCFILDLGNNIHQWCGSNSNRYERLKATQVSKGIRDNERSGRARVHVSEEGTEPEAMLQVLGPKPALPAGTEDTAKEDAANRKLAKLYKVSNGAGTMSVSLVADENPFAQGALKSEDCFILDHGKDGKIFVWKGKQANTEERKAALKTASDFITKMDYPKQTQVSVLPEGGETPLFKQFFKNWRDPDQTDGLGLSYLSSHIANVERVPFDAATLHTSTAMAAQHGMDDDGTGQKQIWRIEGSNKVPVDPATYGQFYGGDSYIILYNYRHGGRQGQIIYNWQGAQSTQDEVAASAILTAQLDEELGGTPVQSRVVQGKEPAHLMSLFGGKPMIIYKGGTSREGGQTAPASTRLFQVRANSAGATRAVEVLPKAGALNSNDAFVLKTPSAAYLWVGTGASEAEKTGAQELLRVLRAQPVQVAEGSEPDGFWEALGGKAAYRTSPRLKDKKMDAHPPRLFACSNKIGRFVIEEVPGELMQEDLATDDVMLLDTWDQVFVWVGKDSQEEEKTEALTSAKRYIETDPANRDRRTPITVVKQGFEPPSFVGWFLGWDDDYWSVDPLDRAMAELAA

Molecule: NCC(=O)N[C@H](Cc1c[nH]c2ccccc12)C(=O)N[C@H](Cc1ccc(O)cc1)C(=O)NCC(=O)N[C@H](Cc1c[nH]c2ccccc12)C(=O)NCC(=O)N[C@H](CC(=O)O)C(=O)N[C@H](CC(=O)O)C(=O)O [D-peptide 1] (H-G[dW][dY]G[dW]G[dD][dD]-OH)
inhibition of CBT-15 binding to DCLK1 isoform 4 (DCLK1 isoform 4 / CBT-15): None of these D-peptides significantly inhibited CBT-15 binding
necrosis or apoptosis in tumors (AsPC-1 xenografts): without inducing necrosis or apoptosis
colony formation [1]: significantly reduced colony formation at low micromolar concentrations
Kd [2]: 396 nM
effect on pGSN binding to DCLK1 isoform 4 (DCLK1 isoform 4-pGSN): did not block the PPI interaction
improvement of pGSN binding to DCLK1 (DCLK1 isoform 4-pGSN): seemed to improve pGSN binding to DCLK1
colony formation [3]: significantly reduced colony formation at low micromolar concentrations
cross-reactivity to isoform 1 (DCLK1 isoform 1): minimal cross-reactivity to isoform 1
specific binding to isoform 4 (DCLK1 isoform 4 [4]): binds specifically to DCLK1 isoform 4

Molecule: FGF19: candidate DCLK1 interacting protein known to be extracellularly localized (969-FG-025; Bio-Techne)
binding to DCLK1 isoform 4 (DCLK1 isoform 4 [5]): bound to DCLK1 isoform 4 similarly to pGSN

Next, values leading:

binding to DCLK1 isoform 4 across the gradient (DCLK1 isoform 4 [6]): consistent, linear binding
Kd (DCLK1 isoform 4 [7]): ~100 nM
Molecule: Gelsolin

Kd (plasma gelsolin): ~100 nM
B1: human DCLK1 isoform 4 (β-short) (natural protein, UniProt O15075-4 1-433, looked up)
chain: MLELIEVNGTPGSQLSTPRSGKSPSPSPTSPGSLRKQRSSQHGGSSTSLASTKVCSSMDENDGPGEEVSEEGFQIPATITERYKVGRTIGDGNFAVVKECVERSTAREYALKIIKKSKCRGKEHMIQNEVSILRRVKHPNIVLLIEEMDVPTELYLVMELVKGGDLFDAITSTNKYTERDASGMLYNLASAIKYLHSLNIVHRDIKPENLLVYEHQDGSKSLKLGDFGLATIVDGPLYTVCGTPTYVAPEIIAETGYGLKVDIWAAGVITYILLCGFPPFRGSGDDQEVLFDQILMGQVDFPSPYWDNVSDSAKELITMMLLVDVDQRFSAVQVLEHPWVNDDGLPENEHQLSVAGKIKKHFNTGPKPNSTAAGVSVIATTALDKERQVFRRRRNQDVRSRYKAQPAPPELNSESEDYSPSSSETVRSPNSPF
modifications: biotin (NHS-LC-biotin) in the library screen only
notes: human DCLK1 isoform 4 (β-short, NP_001182345); also called Doublecortin-like kinase 1 isoform 4; beta-short; source: E. coli BL21(DE3) pLPP with the pET19-DCLK1 isoform 4 plasmid, purified
